Values after ≈ are worked out from the molar mass of the structure shown. Read-outs that look alike come from different tables or passages of the source.
What was measured:
[1] = Description: 10 mg of molecule A are added per 1 ml of aqueous solution.
The suspensions are stirred at 25° C. for 24 hours and are then centrifuged. The amount of molecule A in the supernatant is determined by HPLC and the pH of the supernatant is checked.
The apparent solubility of molecule A in the various oils, surfactants, cosurfactants, DMSO and glycofurol was also determined. Small amounts of molecule A are added to 1 g of each vehicle. Dissolution is carried out by ultrasound treatment at 25° C. Dissolution is confirmed visually and by optical microscopy. The solubility is estimated to within about 1 mg.

[2] = Stability of molecule A in human duodenal liquid; assay type: in vitro ADME; details: FIG. 5
Description: For each stability test, the necessary volume of a sample of human duodenal liquid frozen immediately after withdrawal is defrosted. Centrifuging at 1000 g for 15 min removes the substances resembling mucus. The pH of the supernatant is adjusted to 6.40 by addition of MES buffer (1250 mM in PBS-CMF), a value similar to the mean value of the pH of the fresh duodenal liquid.
Molecule A is dissolved in DMSO and either diluted directly in HESS/HEPES buffer (control) or prepared in the formulations before dilution in HBSS/HEPES in order to obtain a microemulsion. The final concentration in both cases is 10^−4M.
The formulations, preheated to 37° C., are added to the duodenal liquid, maintained at 37° C., in a 1/1 (v/v) ratio and are immediately mixed, in order for the final concentration of molecule A to be 5×10^−5M.
At T=0 (immediately after mixing) and at T=5, 10, 15, 30, 60, 90 and 120 minutes, […] samples of each preparation are withdrawn and mixed with the same volume of acetone at 4° C. to halt the enzymatic reaction. The samples were subsequently centrifuged (1000 g for 5 min) and the supernatant is tested by a validated LC/MS/MS method.

[3] = from a suspension
[4] = in vitro; details: human, Caco-2, pH 7.4
Description: (§1) The Caco-2 strains used in the tests are Caco-2/TC7 clone cells.
(§2) In order to evaluate the scale of permeability of molecule A dissolved in DMSO as a function of the concentration, two solutions are prepared. The first, to which molecule A labelled with ^14C will be added, is 4.3×10^−2M; the second, to which ^14C-mannitol will be added, is 5×10^−2M.
(§3) These DMSO solutions are subsequently diluted in a 25 mM HBSS/HEPES buffer (pH 7.4) to which 0.4 μCi/ml of ^14C-mannitol or 0.4 μCi/ml of molecule A labelled with ^14C has been added (corresponding to 7 μM), so as to obtain final concentrations of molecule A of 7, 10, 50 or 100 mM.
(§4) The final concentration of DMSO in each donor solution is adjusted to 0.5%.
(§5) Donor solutions comprising 0.5% DMSO but comprising no compound are used as controls.
(§6) To analyse the role of P-glycoprotein in the mechanism of the transport of molecule A, donor solutions comprising 10 mM of molecule A and 100 mM of verapamil, nicardipine or progesterone are prepared and the permeability of molecule A is evaluated and compared with that obtained without the P-glycoprotein modulator.
(§7) To study the effects of glycofurol and of macrogol 300 on the permeability of molecule A: • Molecule A is dissolved in glycofurol in order to obtain 4.3×10^−3M or 5×10^−3M solutions. These are subsequently diluted in the HBSS/HEPES buffer to which 0.4 μCi/ml of ^14C-mannitol or 0.4 μCi/ml of molecule A labelled with ^14C has been added (see above), in order to obtain donor solutions for which the final concentration of molecule A is 50 μM and the final content of glycofurol is 1%. • Molecule A is dissolved in macrogol 300 in order to obtain 0.3×10^−3M or 10^−3M solutions.
(§8) Before any formulation, molecule A is dissolved in DMSO or glycofurol in order to obtain, in each solvent, solutions with concentrations of 4.3×10^−3M or 5×10^−3M. 40 μCi/ml of molecule A labelled with ^14C are added to the 4.3×10^−3M solutions, so that the theoretical concentration of molecule A is 5×10^−3M. 40 μCi/ml of ^14C-mannitol are added to the 5×10^−3M solutions.
(§9) Each of the solutions thus obtained is subsequently diluted in the mixtures under consideration of lipid excipients and of surfactants and, if appropriate, of cosurfactants, giving formulations comprising the solvent (DMSO or glycofurol) at 10% and molecule A at 5×10^−4M.
(§10) These formulations are diluted in 25 mM HBSS/HEPES buffer to give the donor solutions, the final concentration of molecule A of which is 5×10^−5M, which comprise 0.4 μCi/ml of molecule A labelled with 14C or else 0.4 μCi/ml of 14C-mannitol, and the proportion of lipid excipient of which is less than 1%. […]

[5] = system: Caco-2/TC7 clone cells
Description: as §1, §2, §3, §4, §5, §6, §7, §8, §9, §10

[6] = system: Caco-2/TC7 clone cells; assay: Transport (apparent permeability AB/BA) through Caco-2 cell monolayers; details: solvents used to prepare the formulations (FIG. 3)
Description: as §1, §2, §3, §4, §5, §6, §7, §8, §9, §10

Molecule: CCOC(=O)[C@H](CNC(=O)c1ccc(CCC(=O)NC2=NCCCN2)cc1)NS(=O)(=O)c1cccc2ccccc12 [molecule A, ethyl ester of (2S)-2-(naphthyl-1-sulphonylamino)-3-(4-(2-(1,4,5,6-tetrahydropyrimidin-2-ylcarbamoyl)ethyl)-benzoylamino)propionic acid]
- solubility ([1]; aqueous medium at physiological pH of the intestines): 400 µg/mL (≈ 0.69 mM)
- solubility ([1]; in glycofurol): 6000 µg/mL (≈ 10.4 mM)
- solubility ([1]; in macrogol 300): 2000 µg/mL (≈ 3.45 mM)
- stability in human duodenal liquid (in words) [2]: unstable
- absolute bioavailability [3]: less than 1%
- absorption of the active principle orally [3]: less than 1%

Molecule: O=C(CCCOc1ccc(C[C@H](NC(=O)OCc2ccccc2)C(=O)O)cc1)NC1=NCCCN1 [molecule B, (2S)-2-benzyloxycarbonylamino-3-(4-(3-(1,4,5,6-tetrahydropyrimidin-2-ylcarbamoyl)propyloxy)phenyl)-propionic acid]
- Papp B→A at 120 min [4]: 2.1 ×10⁻⁶ cm/s
- efflux by P-glycoprotein (in words) ([5]; Caco-2): undergoes efflux by P-glycoprotein
- increase in the transport in the AB direction by a factor, with respect to 0.5% DMSO ([5]; human, Caco-2, 120 min, pH 7.4): 5.9

Molecule: glycofurol
- effect of the solvent on the Papp values of molecule A [6]: no effect

From patent US20080193519A1, “Galenic Applications of Self-Emulsifying Mixtures of Lipidic Excipients” (Aventis Pharma S.A., priority 2004, published 2008)
